In test [1] the target is T1, UBR1 (Rattus norvegicus, UniProt A0A8I5ZK69).
T1 construct: endogenous in cells; host or cells: L6 rat muscle-derived cells
Put plainly: Inhibition of muscle cell actin degradation by immunoblotting. In kind it is cell-based. Particulars: L6 cell line, compound 5 uM, 24 hours. The procedure:
To evaluate the actin degradation of compounds in muscle cells, a L6 cell line, which is a rat muscle-derived cell, was cultured using a DMEM medium containing 10% FBS and 1% streptomycin/penicillin in an incubator in which 5% carbon dioxide was maintained. In order to measure the UBR1 binding strength according to the treatment with a representative compound selected from the present compounds, cells were aliquoted into a 12-well plate. The cells were additionally cultured for 24 hours so as to be completely attached to the surface of the plate. […] To extract proteins from the collected cells, 50 uL of a lysis buffer (20 mM Tris, pH 7.4, 150 mM NaCl, 1% Triton-X-100, 2 mM NaF, 2 mM EDTA, 2 mM b-glycerophosphate, 5 mM sodium orthovanadate, 1 mM PMSF, leupeptin, aprotenin) was injected into each sample, and the cells were lysed. A sample buffer was added to each sample based on the measured total protein concentration, and the mixture was reacted at 100° C. for 5 minutes. After 5 uL was taken from the completely reacted sample and aliquoted into each well of an acrylamide gel, an immunoblotting method was performed, and the experimental results were illustrated in [FIG. 4], [FIG. 5], [FIG. 6], [FIG. 7], [FIG. 8], and [FIG. 9]. For the immunoblotting method, a representative experiment was schematized from three or more independent experiments.
In general terms: Immunoblotting shows a protein as a band on a membrane.

Test [2] relates to UBR1. Put plainly: Inhibition of R-nsP4 degradation by in vitro transcription/translation method. In kind it is biochemical. Particulars: compound 1 uM, 30° C. for 40 minutes, DHFR-Ub-R-nsP4 plasmid, immunoblotting. The protocol: A TnT® Quick Coupled Transcription/Translation System kit was used to confirm the R-nsP4 expression of the compounds. After a pre-mix was made using Transcend Biotin-Lysyl-tRNA, methionine, bestatin, a TnTquick Master mix and a DHFR-Ub-R-nsP4 plasmid, the pre-mix was mixed with a compound (1 uM). After each sample was reacted at 30° C. for 40 minutes, a 5×SDS loading dye was added thereto. After the resulting mixture was reacted at 95° C. for 2 minutes, 5 uL was taken and aliquoted into each well of an acrylamide gel, and then an immunoblotting method was performed, and the experimental results are illustrated in [FIG. 2]. For an in vitro transcription/translation method, a representative experiment was schematized from three or more independent experiments.
Referring to FIG. 2, it can be confirmed that the level of R-nsP4 is increased by Compound 2, Compound 3, Compound 7, Compound 12, Compound 14, and Compound 16 compared to the control. That is, it could be confirmed that in the case of treatment with the compound according to the present invention, the R-nsP4 level was increased by binding to UBR1.

For another test, the target named is T2, UBR box of Human UBR1 (Homo sapiens, UniProt Q8IWV7).
T2 construct: A Gln97-Pro168 portion corresponding to the UBR box of Human UBR1; made in house; host or cells: E. coli
Put plainly: UBR box domain binding by microscale thermophoresis (MST). Particulars: RED-NHS labeled UBR1 UBR box protein (Gln97-Pro168), FIGS. 12 to 19. The procedure: A Gln97-Pro168 portion corresponding to the UBR box of Human UBR1 (UniProt ID: Q81WV7) was cloned into a modified expression vector, and then expressed in E. coli. After affinity chromatography was used, a tag was removed by a protease, and then Gly-His-Met was added to the N-terminal. After ion chromatography was performed, a final UBR box protein of a UBR1 was purified using gel filtration chromatography in a buffer composition of 10 mM NaCl, 20 mM Tris-HCl, 2 mM beta-mercaptoethanol, and pH 7.5.
A dye of the Monolith protein labeling kit RED-NHS 2nd generation (Cat #MO-L011) has an NHS-ester group that forms a covalent bond with primary amines (lysine residues). This dye is optimized for a Monolith-series device equipped with a RED detector. A purified UBR1 UBR box protein was labeled according to the presented protocol using this kit.
Thermophoresis refers to a phenomenon in which particles move due to a temperature gradient. Particles present in a high temperature region have greater kinetic energy than particles present in a low temperature region, and more frequently collide with surrounding particles with greater energy. As a result, particles move from the high temperature region to the low temperature region.
Thermophoresis of proteins is typically different from that of protein-ligand complexes. This is because the binding of the ligand changes its size, electric charge, and solvation energy. […] Therefore, the binding of the UBR1 UBR box protein and the ligand compound was measured using MST, and it was confirmed that the presented ligand binds to the UBR1 UBR box (see FIGS. 12 to 19).
For orientation: In MST a laser heats a spot of the sample, and binding alters the fluorescence response.

The target of test [3] is T1, UBR1. Put plainly: Inhibition of intracellular RGS4 degradation by transfection (immunoblotting). In kind it is cell-based. Particulars: L6 cell line transfected with RGS4 plasmid, compound 5 uM, 24 hours. The protocol:
A L6 cell line, which is a rat muscle-derived cell, was cultured using a DMEM medium containing 10% FBS and 1% streptomycin/penicillin in an incubator in which 5% carbon dioxide was maintained. In order to measure the UBR1 binding strength according to the treatment with a representative compound selected from the present compounds, cells were aliquoted into a 6-well plate. The cells were additionally cultured for 24 hours so as to be completely attached to the surface of the plate. Opti-MEM, Lipofectamine, and an RGS4plasmid was reacted for transfection. After the reaction was completed, the cells are treated such that DNA was expressed intracellularly. […] To extract proteins from the collected cells, 50 uL of a lysis buffer (20 mM Tris, pH 7.4, 150 mM NaCl, 1% Triton-X-100, 2 mM NaF, 2 mM EDTA, 2 mM b-glycerophosphate, 5 mM sodium orthovanadate, 1 mM PMSF, leupeptin, aprotenin) was injected into each sample, and the cells were lysed. A sample buffer was added to each sample based on the measured total protein concentration, and the mixture was reacted at 100° C. for 5 minutes. After 5 uL was taken from the completely reacted sample and aliquoted into each well of an acrylamide gel, an immunoblotting method was performed, and the experimental results are illustrated in [FIG. 3]. […]

Another test concerns the target T3, UBR5 (Rattus norvegicus, UniProt Q62671).
T3 construct: endogenous in cells; host or cells: L6 rat muscle-derived cells
Put plainly: UBR box domain binding strength by immunoprecipitation analysis, UBR5. In kind it is cell-based. Particulars: L6 cell line, compound 5 uM, 24 hours, immunoprecipitation and immunoblotting. The protocol: (§1) To evaluate the binding strength of the compounds to UBR1, UBR2, UBR3 and UBR5 through the UBR box domain, a L6 cell line, which is a rat muscle-derived cell, was cultured using a DMEM medium containing 10% FBS and 1% streptomycin/penicillin in an incubator in which 5% carbon dioxide was maintained. In order to measure the UBR1 binding strength according to the treatment with a representative compound selected from the present compounds, cells were aliquoted into a 100 pi dish. The cells were additionally cultured for 24 hours so as to be completely attached to the surface of the plate. […] To extract proteins from the collected cells, 50 uL of a lysis buffer (20 mM Tris, pH 7.4, 150 mM NaCl, 1% Triton-X-100, 2 mM NaF, 2 mM EDTA, 2 mM b-glycerophosphate, 5 mM sodium orthovanadate, 1 mM PMSF, leupeptin, aprotenin) was injected into each sample, and the cells were lysed. Each sample was reacted with a UBR1 antibody for 16 hours based on the measured total protein concentration, and then reacted with Protein A/G beads for 3 hours. A sample buffer was added to the completely reacted sample and the resulting mixture was reacted at 100° C. for 5 minutes. After 20 uL was taken from the completely reacted sample and aliquoted into each well of an acrylamide gel, an immunoblotting method was performed, and the experimental results are illustrated in [FIG. 10] and [FIG. 11]. […]

The target of another test is T4, UBR2 (Rattus norvegicus, UniProt A0A8I5YBG5).
T4 construct: endogenous in cells; host or cells: L6 rat muscle-derived cells
Put plainly: UBR box domain binding strength by immunoprecipitation analysis, UBR2. In kind it is cell-based. Particulars: L6 cell line, compound 5 uM, 24 hours, immunoprecipitation and immunoblotting. The protocol: as §1

The target in a further test is T5, UBR3 (Rattus norvegicus, UniProt D4A7F0).
T5 construct: endogenous in cells; host or cells: L6 rat muscle-derived cells
Put plainly: UBR box domain binding strength by immunoprecipitation analysis, UBR3. The format is cell-based. Particulars: L6 cell line, compound 5 uM, 24 hours, immunoprecipitation and immunoblotting. The protocol:
as §1

Test [4] addresses T1, UBR1. Put plainly: UBR box domain binding strength by immunoprecipitation analysis, UBR1. The format is cell-based. Particulars: L6 cell line, 24 hours, immunoprecipitation and immunoblotting. The procedure:
as §1

A further test relates to L6 cell line. Put plainly: Confirmation of whether muscle actin is Arg/N-degron pathway substrate (immunoblotting). In kind it is cell-based, rat. Particulars: MG132 10 uM, 24 hours. The protocol:
A L6 cell line, which is a rat muscle-derived cell, was cultured using a DMEM medium containing 10% FBS and 1% streptomycin/penicillin in an incubator in which 5% carbon dioxide was maintained, and cells were aliquoted into a 12-well plate after the culture. The cells were additionally cultured for 24 hours so as to be completely attached to the surface of the plate. To confirm whether MG132 increased UBR1 binding, cells were collected after treatment with MG132 (10 uM) alone for 24 hours. To extract proteins from the collected cells, 50 uL of a lysis buffer (20 mM Tris, pH 7.4, 150 mM NaCl, 1% Triton-X-100, 2 mM NaF, 2 mM EDTA, 2 mM b-glycerophosphate, 5 mM sodium orthovanadate, 1 mM PMSF, leupeptin, aprotenin) was injected into each sample, and the cells were lysed. A sample buffer was added to each sample based on the measured total protein concentration, and the mixture was reacted at 100° C. for 5 minutes. After 5 uL was taken from the completely reacted sample and aliquoted into each well of an acrylamide gel, an immunoblotting method was performed, and the experimental results are illustrated in [FIG. 1]. For the immunoblotting method, a representative experiment was schematized from three or more independent experiments.

Peptide text beside a SMILES is read from it. * marks the point of attachment. Cbz = O=C(OCc1ccccc1)*

T2 sequence (Q8IWV7 97-168): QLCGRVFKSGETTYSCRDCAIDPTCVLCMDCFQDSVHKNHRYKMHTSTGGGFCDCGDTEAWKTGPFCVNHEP
T1 sequence (A0A8I5ZK69 1-1749): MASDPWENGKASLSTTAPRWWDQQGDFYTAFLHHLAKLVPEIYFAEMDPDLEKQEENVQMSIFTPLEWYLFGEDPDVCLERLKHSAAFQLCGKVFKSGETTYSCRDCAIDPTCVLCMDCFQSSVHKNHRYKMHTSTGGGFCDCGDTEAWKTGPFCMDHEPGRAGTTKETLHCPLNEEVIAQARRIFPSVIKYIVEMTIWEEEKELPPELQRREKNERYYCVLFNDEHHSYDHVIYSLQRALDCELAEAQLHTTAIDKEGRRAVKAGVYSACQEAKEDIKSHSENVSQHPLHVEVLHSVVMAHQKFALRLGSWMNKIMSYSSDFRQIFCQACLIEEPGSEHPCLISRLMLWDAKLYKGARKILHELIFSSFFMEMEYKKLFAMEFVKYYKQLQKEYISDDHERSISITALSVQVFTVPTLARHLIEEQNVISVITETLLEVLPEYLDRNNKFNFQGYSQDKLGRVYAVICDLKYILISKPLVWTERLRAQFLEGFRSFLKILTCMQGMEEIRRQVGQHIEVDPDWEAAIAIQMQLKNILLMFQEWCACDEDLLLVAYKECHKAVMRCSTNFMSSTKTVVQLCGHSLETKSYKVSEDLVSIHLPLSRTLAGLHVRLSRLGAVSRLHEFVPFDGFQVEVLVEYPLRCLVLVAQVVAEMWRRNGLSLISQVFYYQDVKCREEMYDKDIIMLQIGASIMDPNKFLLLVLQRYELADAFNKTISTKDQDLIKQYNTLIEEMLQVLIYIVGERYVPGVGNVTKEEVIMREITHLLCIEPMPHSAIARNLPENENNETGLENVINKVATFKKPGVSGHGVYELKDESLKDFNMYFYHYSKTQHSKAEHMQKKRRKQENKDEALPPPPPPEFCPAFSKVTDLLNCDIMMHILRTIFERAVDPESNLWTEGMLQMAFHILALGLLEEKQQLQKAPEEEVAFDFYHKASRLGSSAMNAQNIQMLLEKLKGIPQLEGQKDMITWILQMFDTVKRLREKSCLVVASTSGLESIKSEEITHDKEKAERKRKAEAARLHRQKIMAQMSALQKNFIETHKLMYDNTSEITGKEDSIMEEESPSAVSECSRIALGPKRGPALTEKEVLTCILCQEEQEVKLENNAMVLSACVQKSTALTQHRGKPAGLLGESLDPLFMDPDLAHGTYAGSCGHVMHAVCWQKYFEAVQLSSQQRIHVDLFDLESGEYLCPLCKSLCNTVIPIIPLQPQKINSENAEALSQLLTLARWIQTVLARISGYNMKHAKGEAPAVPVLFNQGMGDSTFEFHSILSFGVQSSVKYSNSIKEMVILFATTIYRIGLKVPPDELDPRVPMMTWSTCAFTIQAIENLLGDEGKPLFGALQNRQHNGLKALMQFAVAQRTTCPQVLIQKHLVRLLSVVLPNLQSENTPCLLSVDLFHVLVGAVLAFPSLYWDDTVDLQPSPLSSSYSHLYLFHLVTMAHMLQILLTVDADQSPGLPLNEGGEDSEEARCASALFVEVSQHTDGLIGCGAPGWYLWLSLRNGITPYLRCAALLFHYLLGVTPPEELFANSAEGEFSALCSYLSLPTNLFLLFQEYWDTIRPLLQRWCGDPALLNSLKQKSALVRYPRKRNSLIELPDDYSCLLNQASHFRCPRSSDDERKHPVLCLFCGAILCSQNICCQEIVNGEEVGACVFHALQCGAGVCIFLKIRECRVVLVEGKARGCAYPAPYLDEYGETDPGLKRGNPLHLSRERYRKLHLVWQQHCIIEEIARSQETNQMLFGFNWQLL
T3 sequence (Q62671 whole entry): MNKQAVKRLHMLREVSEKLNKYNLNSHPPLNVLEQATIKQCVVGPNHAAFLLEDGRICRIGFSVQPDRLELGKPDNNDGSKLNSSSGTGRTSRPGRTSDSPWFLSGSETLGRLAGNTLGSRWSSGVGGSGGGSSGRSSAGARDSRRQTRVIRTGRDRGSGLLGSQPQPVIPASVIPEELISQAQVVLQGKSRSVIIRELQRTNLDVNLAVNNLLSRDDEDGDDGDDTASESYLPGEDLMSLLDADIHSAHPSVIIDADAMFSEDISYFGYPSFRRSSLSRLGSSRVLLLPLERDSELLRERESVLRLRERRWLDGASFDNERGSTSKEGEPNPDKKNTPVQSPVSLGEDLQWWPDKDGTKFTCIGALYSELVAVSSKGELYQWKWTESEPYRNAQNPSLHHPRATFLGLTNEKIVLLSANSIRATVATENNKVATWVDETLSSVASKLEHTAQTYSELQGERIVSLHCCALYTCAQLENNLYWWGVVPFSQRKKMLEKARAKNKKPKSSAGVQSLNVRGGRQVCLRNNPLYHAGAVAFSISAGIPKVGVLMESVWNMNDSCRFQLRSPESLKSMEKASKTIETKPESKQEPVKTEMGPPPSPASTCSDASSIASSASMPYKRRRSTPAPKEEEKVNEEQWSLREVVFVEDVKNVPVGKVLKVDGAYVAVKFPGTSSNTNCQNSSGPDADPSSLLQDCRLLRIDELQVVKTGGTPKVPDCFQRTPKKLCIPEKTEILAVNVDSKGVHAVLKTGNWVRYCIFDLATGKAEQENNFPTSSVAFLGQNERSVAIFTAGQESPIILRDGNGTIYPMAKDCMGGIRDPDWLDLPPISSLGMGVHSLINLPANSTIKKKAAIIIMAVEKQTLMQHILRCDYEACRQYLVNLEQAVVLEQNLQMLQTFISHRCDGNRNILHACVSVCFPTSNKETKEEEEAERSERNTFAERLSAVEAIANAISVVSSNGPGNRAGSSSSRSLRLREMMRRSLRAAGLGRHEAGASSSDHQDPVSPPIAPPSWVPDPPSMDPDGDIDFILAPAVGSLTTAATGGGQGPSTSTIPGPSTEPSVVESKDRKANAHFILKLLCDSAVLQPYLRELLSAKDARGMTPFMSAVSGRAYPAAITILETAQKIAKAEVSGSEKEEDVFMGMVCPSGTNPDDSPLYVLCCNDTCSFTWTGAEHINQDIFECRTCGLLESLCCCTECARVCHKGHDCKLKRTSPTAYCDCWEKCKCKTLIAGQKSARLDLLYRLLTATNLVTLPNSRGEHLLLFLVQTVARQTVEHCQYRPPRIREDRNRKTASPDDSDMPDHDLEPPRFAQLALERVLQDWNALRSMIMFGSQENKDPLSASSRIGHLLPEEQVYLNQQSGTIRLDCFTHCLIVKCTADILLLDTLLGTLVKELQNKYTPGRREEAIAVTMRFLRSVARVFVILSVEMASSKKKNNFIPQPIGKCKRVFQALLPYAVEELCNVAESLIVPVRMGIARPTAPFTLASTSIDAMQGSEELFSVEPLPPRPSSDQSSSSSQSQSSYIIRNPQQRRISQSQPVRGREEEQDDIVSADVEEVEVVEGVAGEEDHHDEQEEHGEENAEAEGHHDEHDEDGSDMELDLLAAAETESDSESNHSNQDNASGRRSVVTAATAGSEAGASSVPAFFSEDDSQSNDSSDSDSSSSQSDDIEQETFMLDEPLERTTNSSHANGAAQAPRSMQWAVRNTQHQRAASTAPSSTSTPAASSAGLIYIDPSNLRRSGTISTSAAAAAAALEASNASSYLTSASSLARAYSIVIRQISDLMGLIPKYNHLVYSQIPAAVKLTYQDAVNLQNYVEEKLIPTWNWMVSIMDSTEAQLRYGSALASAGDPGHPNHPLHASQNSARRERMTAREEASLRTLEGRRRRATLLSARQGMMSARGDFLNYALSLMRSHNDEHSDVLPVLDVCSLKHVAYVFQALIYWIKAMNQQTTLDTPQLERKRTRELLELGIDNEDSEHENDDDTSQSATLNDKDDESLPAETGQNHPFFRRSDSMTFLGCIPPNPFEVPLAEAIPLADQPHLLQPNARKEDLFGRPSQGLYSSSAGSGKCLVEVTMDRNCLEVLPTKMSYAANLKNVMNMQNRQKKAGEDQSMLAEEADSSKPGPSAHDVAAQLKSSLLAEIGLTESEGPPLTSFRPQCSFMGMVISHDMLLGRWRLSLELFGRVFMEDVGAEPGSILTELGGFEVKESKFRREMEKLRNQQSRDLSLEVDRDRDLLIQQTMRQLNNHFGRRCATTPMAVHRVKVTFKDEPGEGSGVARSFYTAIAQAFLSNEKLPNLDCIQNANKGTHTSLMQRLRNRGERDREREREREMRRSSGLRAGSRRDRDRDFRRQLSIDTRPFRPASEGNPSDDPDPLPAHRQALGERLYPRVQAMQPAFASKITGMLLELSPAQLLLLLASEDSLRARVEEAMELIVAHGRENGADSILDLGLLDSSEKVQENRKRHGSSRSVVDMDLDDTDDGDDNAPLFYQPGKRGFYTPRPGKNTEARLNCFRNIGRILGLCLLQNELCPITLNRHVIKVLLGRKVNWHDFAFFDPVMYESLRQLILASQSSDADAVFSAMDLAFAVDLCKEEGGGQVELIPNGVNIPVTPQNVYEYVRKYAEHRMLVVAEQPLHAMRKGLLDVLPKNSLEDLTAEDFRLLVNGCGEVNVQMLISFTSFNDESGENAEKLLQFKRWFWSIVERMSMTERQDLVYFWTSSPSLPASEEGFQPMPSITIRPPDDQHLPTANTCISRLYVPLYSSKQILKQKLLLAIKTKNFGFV

Regarding `Nc1ccc(S(=O)(=O)NCC(=O)c2ccc(O)cc2)cc1` [Compound 12, 4-amino-N-(2-(4-hydroxyphenyl)-2-oxoethyl)benzenesulfonamide], the “level of ACTG2 compared to the control” value on UBR1 [1] was “further increased”. Moreover, the “level of R-nsP4 compared to the control” value with UBR1 [2] is listed as “increased”. Also, the “binding to UBR1 UBR box (MST)” value on UBR box of Human UBR1 was “binds”.

For the compound `Nc1ccc(S(=O)(=O)NNC(=O)c2ccc(O)cc2)cc1N1CCOCC1` [Compound 3, 4-amino-N′-(4-hydroxybenzoyl)-3-morpholinobenzenesulfonohydrazide], the “level of RGS4 compared to the control” value on UBR1 [3] is reported as “increased”. The “level of ACTA1 compared to the control” value on UBR1 [1] is given as “further increased”. In addition, the “level of R-nsP4 compared to the control” value in the test on UBR1 [2] was “increased”.

`Nc1ccc(S(=O)(=O)NNC(=O)c2ccc(O)cc2)cc1` [Compound 2, 4-amino-N′-(4-hydroxybenzoyl)benzenesulfonohydrazide]: the “binding strength of UBR5 and ACTA1” value at UBR5 is recorded as “reduced”. In addition, the “level of RGS4 compared to the control” value on UBR1 [3] is “increased”. Moreover, on UBR1 [1], the “level of ACTA1 compared to the control” value was “further increased”. For the same compound, the “binding strength of UBR2 and ACTA1” value at UBR2 is “reduced”. For the same compound, in the test with UBR1 [2], the “level of R-nsP4 compared to the control” value was “increased”. The “binding strength of UBR3 and ACTA1” value at UBR3 is “reduced”. Further, the “binding to UBR1 UBR box (MST)” value at UBR box of Human UBR1 is “binds”. Further, the “binding strength of UBR1 and ACTA1” value at UBR1 [4] (compound 5 uM) was “reduced”.

Consider `COc1ccc(S(=O)(=O)NNC(=O)c2ccc(O)cc2)cc1` [Compound 13, N′-(4-hydroxybenzoyl)-4-methoxybenzenesulfonohydrazide], for which the “level of ACTG2 compared to the control” value on UBR1 [1] is listed as “further increased”. Also, the “binding to UBR1 UBR box (MST)” value on UBR box of Human UBR1 is listed as “binds”.

As to `Nc1ccc(S(=O)(=O)CNC(=O)c2ccc(O)cc2)cc1` [Compound 16, N-(((4-aminophenyl)sulfonyl)methyl)-4-hydroxybenzamide], at UBR1 [1], the “level of ACTA1 compared to the control” value is given as “further increased”. Moreover, the “level of R-nsP4 compared to the control” value in the test with UBR1 [2] is listed as “increased”.

For `Nc1ccc(S(=O)(=O)NNC(=O)c2cccc(-c3ccccc3)c2)cc1` [Compound 7, N′-([1,1′-biphenyl]-3-carbonyl)-4-aminobenzenesulfonohydrazide], the “level of ACTA1 compared to the control” value at UBR1 [1] is on record as “further increased”. Further, in the test with UBR1 [2], the “level of R-nsP4 compared to the control” value was “increased”.

Regarding `Cc1ccc(S(=O)(=O)NNC(=O)c2ccc(O)cc2)cc1` [Compound 1, N′-(4-hydroxybenzoyl)-4-methylbenzenesulfonohydrazide], the “level of ACTA1 compared to the control” value at UBR1 [1] is “further increased”. For the same compound, the “binding to UBR1 UBR box (MST)” value on UBR box of Human UBR1 is listed as “binds”.

Consider `N=C(N)c1ccc(S(=O)(=O)NNC(=O)c2ccc(O)cc2)cc1` [Compound 14, 4-((2-(4-hydroxybenzoyl)hydrazinyl)sulfonyl)benzimidamide], for which the “level of ACTG2 compared to the control” value on UBR1 [1] was “further increased”. In the test with UBR1 [2], the “level of R-nsP4 compared to the control” value is reported as “increased”.

Take `CC(C)C[C@@H](C=O)NC(=O)[C@H](CC(C)C)NC(=O)[C@H](CC(C)C)NC(=O)OCc1ccccc1` [MG132] (Cbz-Leu-Leu-Leu-aldehyde): in the test with L6 cell line, the “level of ACTA1 compared to a control” value is listed as “increased”, the “level of ACTC1 compared to a control” value is “increased” and the “level of ACTG2 compared to a control” value is “increased”. For the same compound, on UBR1 [4] (MG132 10 uM as negative control), the “binding strength between UBR1 and a substrate ACTA1” value was “maintained”.

The record behind these values is patent US12559455B2, “Compound as a UBR box domain ligand” (AUTOTAC INC., priority 2020, dated 2026).
